Assay results reported in PubChem BioAssay AID179 (DTP/NCI, 2004).
“And” between values parts separate entries of the source, which are not always exact repeats. Equal values may be shown once. The source made the active and inactive calls.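 Rule for the calls: active = compounds giving half or more protection of infected cells from virus-caused growth loss, again on retest; inactive = the rest.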

Test system: CEM cells HIV-1 protection, formazan growth assay
Assay: NCI AIDS Antiviral Assay
Conditions: for IC50: measured here: growth of uninfected CEM cells
Method in brief: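 Category rules: moderately active means at least 50% protection on retest, and confirmed active means 100% protection reproducibly. The underlying data came from a formazan growth assay in HIV-1-infected CEM cells.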

Compound	EC50	IC50	outcome
Nc1ncnc2ccc(Sc3ccc4ncnc(N)c4c3)cc12	> 100 µM	> 100 µM	
COC(=O)C1CC(=O)CCC1c1ccccc1 (stereo not given)	> 347 µM	> 347 µM	
COc1cc2c(cc1OC)C1=NN(c3ccccc3)C(=O)C1CC2 (stereo not given)	> 8.51 µM	> 8.51 µM	
C[C@@H](c1ccccc1)n1c(N)c(C#N)c2ccc([N+](=O)[O-])cc2c1=O	> 200 µM	12.3 µM	
Cc1cc(=O)[nH]c(NN2C(Cl)C(=O)C2c2ccccc2O)n1 (stereo not given)	> 58.9 µM	3.63 µM	
CC(C)CCCC(C)[C@H]1CCC2[C@@H]3CCC4C[C@@H](CCC=C(c5cc(Cl)c(O)c(C(=O)NO)c5)c5cc(Cl)c(O)c(C(=O)NO)c5)CC[C@]4(C)C3CC[C@@]21C (stereo not given in full)	> 200 µM	> 200 µM	
CN(O)C(=O)CCCC(=O)NCC(C)(C)CNC(=O)CCCC(=O)N(C)O	> 200 µM	> 200 µM	
O=C1C(NS(=O)(=O)c2ccccc2)=C(N(Cc2ccccc2)Cc2ccccc2)C(=O)c2ccccc21	> 200 µM	72.4 µM	
C1CSCCSCCCS[C@@H]2CCCCC2SC1 (stereo not given in full)	> 100 µM	> 100 µM	
CCCCCCC(O)CCCCCCCCCCC(=O)OCC(COC(=O)CCCCCCCCCCC(O)CCCCCC)OC(=O)CCCCCCCCCCC(O)CCCCCC (stereo not given)	> 100 µM	> 100 µM	
Cc1c(CSCC(=O)O)c(O)c2c(=O)c3c(O)c(CSCC(=O)O)c(O)c4c5c(O)c(CSCC(=O)O)c(O)c6c(=O)c7c(O)c(CSCC(=O)O)c(C)c8c1c2c(c34)c(c78)c65	> 26.9 µM	1.12 µM	
CO/C(=N/N1CC1C(F)(F)F)c1ccncc1 (stereo not given)			inactive
O=c1[nH]c(=O)n(C2CC(O)C(COP(=O)(OCc3ccc([N+](=O)[O-])o3)N3CCCCC3)O2)cc1F (stereo not given)	> 200 µM	0.17 µM	
O=C(CCc1ccc(O)c(O)c1)NCCc1ccccc1	> 200 µM	21.9 µM	
C/C(CCn1[nH]c(=O)ccc1=O)=N\Nc1ccc([N+](=O)[O-])cc1[N+](=O)[O-]		20 µM	inactive
CC(=O)/C(=C/c1cccc(F)c1)c1ccccc1	> 56.2 µM	> 56.2 µM	
O=C1CC23CC(=O)CC2(C1)c1ccccc1C3=O (stereo not given)	> 389 µM	> 389 µM	
C=CC[P+](CC=C)(c1ccccc1)c1ccccc1	> 200 µM	1.91 µM	
COc1ccc(C(C)=C(C#N)C#N)cc1	> 182 µM	> 182 µM	
Fc1ccccc1C1SCc2nc3cc4ccccc4cc3n21 (stereo not given)	> 200 µM	75.9 µM	
C=C1CC(CC)(CCN2C(=O)c3ccccc3C2=O)OC1=O (stereo not given)	> 209 µM	10.5 µM	
Nc1nn2cc3c(nc2c1N=Nc1ccccc1)-c1ccccc1CC3	> 200 µM	> 200 µM	

Compound	EC50	IC50	outcome
COc1ccc(C[C@H]2COC(=O)[C@@H]2Cc2ccc(O)c(O)c2)cc1OC	> 200 µM	19.5 µM	
Cc1ccc(C)c(N=C2NC(=O)C(CC(=O)Nc3ccc(Cl)cc3Cl)S2)c1 (stereo not given)	> 44.7 µM	19.5 µM	
C1CC(C2OCOC3COCOC32)OO1 (stereo not given)	> 200 µM	> 200 µM	
OC(C/C(=N\N=C(/CC(O)(C(F)(F)F)C(F)(F)F)c1ccccc1)c1ccccc1)(C(F)(F)F)C(F)(F)F	> 200 µM	> 200 µM	
N#CC1=C(O)NC(O)=C(C#N)C1c1ccc(Cl)cc1Cl	> 17 µM	> 17 µM	
O=C(O)c1cnnc2ccccc12	> 1450 µM	> 1450 µM	
CCOC(=O)/C=C/c1cccc(C#N)c1	> 178 µM	87.1 µM	
O=S(=O)(NC1OCCCC1I)c1ccccc1 (stereo not given)	> 200 µM	> 200 µM	
O=C(O)c1cccc(S(=O)(=O)NN2C(=O)CSC2c2ccccc2)c1 (stereo not given)	> 200 µM	> 200 µM	
Cc1cccc(NC(=O)CSc2nnc(-c3ccc(N=Cc4ccc(Cl)cc4)cc3)o2)c1	> 21.4 µM	> 21.4 µM	
O=C(O)c1cc([N+](=O)[O-])c2c(c1)P(=O)(O)c1cc(C(=O)O)cc([N+](=O)[O-])c1O2	> 200 µM	> 200 µM	
CC(=O)OCC1OC(n2cc(C)c(-n3cncn3)nc2=O)CC1N=[N+]=[N-] (stereo not given)	> 200 µM	11.5 µM	
Fc1ccc2nncc(SCc3ccc(Cl)c(Cl)c3)c2c1	> 79.4 µM	> 79.4 µM	
OC1CSCCCSCCSCCCSC1	> 17.4 µM	> 17.4 µM	
CC1=NC(C(=O)O)Cc2c1[nH]c1ccccc21 (stereo not given)			inactive
Cc1cc(=O)[nH]c(NN2C(Cl)C(=O)C2c2c(O)ccc3ccccc23)n1 (stereo not given)	> 182 µM	24 µM	
CC(=O)/C=C/c1cc([N+](=O)[O-])ccc1O	> 200 µM	36.3 µM	
CC1=C[P+](Cc2ccccc2)(c2ccccc2)CC1 (stereo not given)		186 µM and 72.4 µM	
CCCCCCOc1ccc(C(=O)N(C)O)cc1	> 200 µM	11.5 µM	
COC(=O)COc1ccc([As](=O)(O)O)cc1	> 200 µM	> 200 µM	
[N-]=[N+]=Nc1cc(=O)oc2ccccc12	> 200 µM	117 µM	
CCCCCCCCCCCC(C(=O)O)C(=O)O	> 138 µM	> 138 µM	
